We go through 19 compounds from patent US9346809B2 (LEO PHARMA A/S, priority 2009, dated 2016).

Like-named read-outs stand apart in the source and are kept apart here.

One may read the EC50 as the concentration that produces a half-maximal response.

Holding throughout (format): biochemical
The target in assay [1] is T1, TYK2 (aa 871-1187, catalytic domain, GST-tag) (Homo sapiens, UniProt P29597).
T1 construct: JAK1 (aa 850-1154) and TYK2 (aa 871-1187) are expressed with an N-terminally fused GST-tag; GST (N); purchased Carna Biosciences, Inc; host or cells: baculovirus expression system
T1 sequence (P29597 871-1187): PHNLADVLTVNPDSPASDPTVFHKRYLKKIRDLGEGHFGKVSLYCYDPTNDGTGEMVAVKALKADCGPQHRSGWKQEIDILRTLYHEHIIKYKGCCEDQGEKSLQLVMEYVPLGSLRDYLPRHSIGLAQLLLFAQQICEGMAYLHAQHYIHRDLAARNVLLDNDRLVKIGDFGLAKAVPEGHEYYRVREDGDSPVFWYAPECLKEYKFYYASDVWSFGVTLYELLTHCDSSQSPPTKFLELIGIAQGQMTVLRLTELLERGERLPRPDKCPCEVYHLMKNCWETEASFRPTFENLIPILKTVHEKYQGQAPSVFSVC
The experiment in a line: JAK kinase assay (HTRF, phosphorylation of TK substrate-biotin), TYK2. The note with it: ATP at Km (13 μM). A digest of the protocol:
(§1)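 Catalytic-domain kinases phosphorylated 1 μM biotin-TK substrate at ATP Km (JAK1 7 μM, JAK2 4 μM, JAK3 2 μM, TYK2 13 μM) in Hepes pH 7.0 with DTT and MgCl2, for 20-30 min at RT; JAK1 and TYK2 also had 50 nM SEB. Detection was by HTRF (streptavidin-XL665/Cryptate antibody) overnight, giving EC50.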

For assay [2], the target named is T2, JAK3 (catalytic domain, His-tag) (Homo sapiens, UniProt P52333).
T2 construct: All four purified enzymes contain only the catalytic domain; His (N); purchased Carna Biosciences, Inc; host or cells: baculovirus expression system
In words: JAK kinase assay (HTRF, phosphorylation of TK substrate-biotin), JAK3. The note with it: ATP at Km (2 μM). A digest of the protocol: as §1
For orientation: In TR-FRET formats the signal depends on donor and acceptor labels being close together.

Assay [3] deals with T3, JAK2 (catalytic domain, His-tag) (Homo sapiens, UniProt O60674).
T3 construct: All four purified enzymes contain only the catalytic domain; His (N); purchased Carna Biosciences, Inc; host or cells: baculovirus expression system
In words: JAK kinase assay (HTRF, phosphorylation of TK substrate-biotin), JAK2. The note with it: ATP at Km (4 μM). A digest of the protocol:
as §1

Assay [4] concerns the target T4, JAK1 (aa 850-1154, catalytic domain, GST-tag) (Homo sapiens, UniProt P23458).
T4 construct: JAK1 (aa 850-1154) and TYK2 (aa 871-1187) are expressed with an N-terminally fused GST-tag; GST (N); purchased Carna Biosciences, Inc; host or cells: baculovirus expression system
The experiment in a line: JAK kinase assay (HTRF, phosphorylation of TK substrate-biotin), JAK1. The note with it: ATP at Km (7 μM). A digest of the protocol: as §1

Where [5] appears, read: read-out: TYK2 kinase inhibitory activity (EC50 indicator).
Where [6] appears, read: read-out: JAK3 kinase inhibitory activity (EC50 indicator).
Where [7] appears, read: read-out: JAK2 kinase inhibitory activity (EC50 indicator).
Setting [8] is: read-out: JAK1 kinase inhibitory activity (EC50 indicator).
[9] abbreviates: HTRF assay, read-out: TYK2 kinase inhibitory activity (EC50 indicator).
Setting [10] is: HTRF assay, read-out: JAK3 kinase inhibitory activity (EC50 indicator).
Where [11] appears, read: HTRF assay, read-out: JAK2 kinase inhibitory activity (EC50 indicator).
The mark [12] stands for this setting: HTRF assay, read-out: JAK1 kinase inhibitory activity (EC50 indicator).

T2 sequence (P52333 822-1111 limits assumed): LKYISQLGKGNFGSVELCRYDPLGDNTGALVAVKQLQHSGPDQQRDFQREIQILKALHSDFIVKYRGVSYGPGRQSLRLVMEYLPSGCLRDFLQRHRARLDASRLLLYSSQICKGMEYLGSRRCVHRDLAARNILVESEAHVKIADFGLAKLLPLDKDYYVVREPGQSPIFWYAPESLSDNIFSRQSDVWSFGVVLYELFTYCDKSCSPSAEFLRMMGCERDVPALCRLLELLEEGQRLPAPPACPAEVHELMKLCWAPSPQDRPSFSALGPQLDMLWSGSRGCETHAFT
T3 sequence (O60674 849-1124 limits assumed): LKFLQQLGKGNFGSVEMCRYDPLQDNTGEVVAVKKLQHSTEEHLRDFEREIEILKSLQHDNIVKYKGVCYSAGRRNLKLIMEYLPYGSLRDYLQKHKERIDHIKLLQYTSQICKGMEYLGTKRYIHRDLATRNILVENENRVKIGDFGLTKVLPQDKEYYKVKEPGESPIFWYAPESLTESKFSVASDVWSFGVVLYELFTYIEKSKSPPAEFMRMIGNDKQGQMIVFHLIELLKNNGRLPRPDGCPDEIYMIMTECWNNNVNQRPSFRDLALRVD
T4 sequence (P23458 850-1154): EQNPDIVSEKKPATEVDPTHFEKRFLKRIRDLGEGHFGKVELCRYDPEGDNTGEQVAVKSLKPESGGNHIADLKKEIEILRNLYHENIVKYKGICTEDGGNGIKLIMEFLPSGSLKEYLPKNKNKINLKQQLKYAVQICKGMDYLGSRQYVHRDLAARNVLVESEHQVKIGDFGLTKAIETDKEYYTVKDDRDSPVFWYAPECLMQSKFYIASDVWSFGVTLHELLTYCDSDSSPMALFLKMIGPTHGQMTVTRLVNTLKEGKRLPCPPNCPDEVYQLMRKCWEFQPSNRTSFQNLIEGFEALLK

For `CC1CN(C(=O)c2cccc(C#N)c2)C2(CC2)CN1c1ncnc2[nH]ccc12` (stereo not shown) [Example 145, 3-[6-Methyl-7-(7H-pyrrolo[2,3-d]pyrimidin-4-yl)-4,7-diaza-spiro[2.5]octane-4-carbonyl]-benzonitrile], the EC50 in assay [1] (setting [5]) is 100 to 500 nM; in assay [2] (setting [6]), 100 to 500 nM; in assay [3] (setting [7]) it was below 100 nM; in assay [4] (setting [8]), below 100 nM.

As to `NS(=O)(=O)c1ccc(SCC(=O)N2CCN(c3ncnc4[nH]ccc34)CC23CC3)cc1` [Example 404, 4-{2-Oxo-2-[7-(7H-pyrrolo[2,3-d]pyrimidin-4-yl)-4,7-diaza-spiro[2.5]oct-4-yl]-ethylsulfanyl}-benzenesulfonamide], the EC50 in assay [1] (setting [9]), in assay [2] (setting [10]), in assay [3] (setting [11]) and in assay [4] (setting [12]) was below 100 nM in each case.

Turning to `N#CCOc1ccc(C(=O)N2[C@@H]3CC[C@@H]2CN(c2ncnc4[nH]ccc24)C3)cc1` [Example 342, {4-[3-(7H-Pyrrolo[2,3-d]pyrimidin-4-yl)-3,8-diaza-bicyclo[3.2.1]octane-8-carbonyl]-phenoxy}-acetonitrile], the EC50 in assay [1] (setting [9]) is above 500 nM; in assay [2] (setting [10]), 100 to 500 nM; in assay [3] (setting [11]), below 100 nM; in assay [4] (setting [12]), below 100 nM.

Consider `CC(=O)NCC(=O)N1[C@@H]2CC[C@@H]1CN(c1ncnc3[nH]ccc13)C2` [Example 34, N-{2-Oxo-2-[3-(7H-pyrrolo[2,3-d]pyrimidin-4-yl)-3,8-diaza-bicyclo[3.2.1]oct-8-yl]-ethyl}acetamide], for which the EC50 in assay [1] (setting [5]), in assay [2] (setting [6]), in assay [3] (setting [7]) and in assay [4] (setting [8]) was above 500 nM each time.

Turning to `N#Cc1ccc(CS(=O)(=O)N2[C@@H]3CC[C@H]2CN(c2ncnc4[nH]ccc24)C3)cc1` [Example 78, 4-[3-(7H-Pyrrolo[2,3-d]pyrimidin-4-yl)-3,8-diaza-bicyclo[3.2.1]octane-8-sulfonylmethyl]-benzonitrile], the EC50 in assay [1] (setting [5]) is above 500 nM; in assay [2] (setting [6]) it was 100 to 500 nM; in assay [3] (setting [7]) it was 100 to 500 nM; in assay [4] (setting [8]), below 100 nM.

With `NS(=O)(=O)c1ccc2[nH]c(C(=O)N3CCN(c4ncnc5[nH]ccc45)CC34CC4)cc2c1` [Example 186, 2-[7-(7H-Pyrrolo[2,3-d]pyrimidin-4-yl)-4,7-diaza-spiro[2.5]octane-4-carbonyl]-1H-indole-5-sulfonic acid amide], the EC50 in assay [1] (setting [5]), in assay [2] (setting [6]), in assay [3] (setting [7]) and in assay [4] (setting [8]) was below 100 nM each time.

Consider `Cc1c[nH]c2ncnc(N3CCN(C(=O)Cc4cccc(CC#N)c4)C4(CC4)C3)c12` [Example 327, (3-{2-[7-(5-Methyl-7H-pyrrolo[2,3-d]pyrimidin-4-yl)-4,7-diaza-spiro[2.5]oct-4-yl]-2-oxo-ethyl}-phenyl)-acetonitrile], for which the EC50 in assay [1] (setting [9]), in assay [2] (setting [10]), in assay [3] (setting [11]) and in assay [4] (setting [12]) was above 500 nM in each case.

Consider `O=C(CCc1ccccc1)N1[C@@H]2CC[C@@H]1CN(c1ncnc3[nH]ccc13)C2` [Example 168, 3-Phenyl-1-[3-(7H-pyrrolo[2,3-d]pyrimidin-4-yl)-3,8-diaza-bicyclo[3.2.1]oct-8-yl]-propan-1-one], for which the EC50 was above 500 nM in assay [1] (setting [5]), 100 to 500 nM in assay [2] (setting [6]), below 100 nM in assay [3] (setting [7]) and below 100 nM in assay [4] (setting [8]).

Regarding `N#Cc1ccc(CC(=O)N2CCN(c3ccnc4[nH]ccc34)CC23CC3)cc1` [Example 115, 4-{2-Oxo-2-[7-(1H-pyrrolo[2,3-b]pyridin-4-yl)-4,7-diaza-spiro[2.5]oct-4-yl]-ethyl}-benzonitrile], the EC50 is above 500 nM in assay [1] (setting [5]), below 100 nM in assay [2] (setting [6]), below 100 nM in assay [3] (setting [7]) and below 100 nM in assay [4] (setting [8]).

As for `O=C(c1ccc(OC(F)(F)F)cc1)N1CCN(c2ccnc3[nH]ccc23)CC12CC2` [Example 238, [7-(1H-Pyrrolo[2,3-b]pyridin-4-yl)-4,7-diaza-spiro[2.5]oct-4-yl]-(4-trifluoromethoxy-phenyl)-methanone], the EC50 in assay [1] (setting [9]) was above 500 nM; in assay [2] (setting [10]) it was above 500 nM; in assay [3] (setting [11]) it was 100 to 500 nM; in assay [4] (setting [12]) it was below 100 nM.

For `CC(=O)Nc1nc(N2CCN(C(=O)Cc3ccc(C#N)cc3)C3(CC3)C2)c2cc[nH]c2n1` [Example 93, N-(4-{4-[2-(4-Cyano-phenyl)-acetyl]-4,7-diaza-spiro[2.5]oct-7-yl}-7H-pyrrolo[2,3-d]pyrimidin-2-yl)-acetamide], the EC50 in assay [1] (setting [5]) is 100 to 500 nM; in assay [2] (setting [6]), below 100 nM; in assay [3] (setting [7]) it was below 100 nM; in assay [4] (setting [8]), below 100 nM.

`O=C(Cc1cccnc1)N1CCN(c2ncnc3[nH]ccc23)CC12CC2` [Example 4, 2-Pyridin-3-yl-1-[7-(7H-pyrrolo[2,3-d]pyrimidin-4-yl)-4,7-diazaspiro[2.5]oct-4-yl]ethanone]: the EC50 is above 500 nM in assay [1] (setting [5]), 100 to 500 nM in assay [2] (setting [6]), below 100 nM in assay [3] (setting [7]) and 100 to 500 nM in assay [4] (setting [8]).

As to `N#CCOc1cccc(C(=O)N2[C@@H]3CC[C@@H]2CN(c2ncnc4[nH]ccc24)C3)c1` [Example 343, {3-[3-(7H-Pyrrolo[2,3-d]pyrimidin-4-yl)-3,8-diaza-bicyclo[3.2.1]octane-8-carbonyl]-phenoxy}-acetonitrile], the 50% effective concentration (EC50) is above 500 nM in assay [1] (setting [9]), 100 to 500 nM in assay [2] (setting [10]), below 100 nM in assay [3] (setting [11]) and below 100 nM in assay [4] (setting [12]).

For the compound `NS(=O)(=O)c1ccc(NCC(=O)N2CCN(c3ncnc4[nH]ccc34)CC23CC3)cc1` [Example 454, 4-{2-Oxo-2-[7-(7H-pyrrolo[2,3-d]pyrimidin-4-yl)-4,7-diaza-spiro[2.5]oct-4-yl]-ethylamino}-benzenesulfonamide], the EC50 in assay [1] (HTRF assay, read-out: TYK2 kinase inhibitory activity (EC50)) is 100 to 500 nM; in assay [2] (HTRF assay, read-out: JAK3 kinase inhibitory activity (EC50)) it was 100 to 500 nM; in assay [3] (HTRF assay, read-out: JAK2 kinase inhibitory activity (EC50)) it was below 100 nM; in assay [4] (HTRF assay, read-out: JAK1 kinase inhibitory activity (EC50)), below 100 nM.

For the compound `N#Cc1cccc(CS(=O)(=O)N2CCN(c3ncnc4[nH]ccc34)CC23CC3)c1` [Example 76, 3-[7-(7H-Pyrrolo[2,3-d]pyrimidin-4-yl)-4,7-diaza-spiro[2.5]octane-4-sulfonylmethyl]-benzonitrile], the EC50 was above 500 nM in assay [1] (setting [5]), 100 to 500 nM in assay [2] (setting [6]), below 100 nM in assay [3] (setting [7]) and below 100 nM in assay [4] (setting [8]).

On to `Cc1c[nH]c2ncnc(N3CCN(C(=O)Cc4cccc(C#N)c4)C4(CC4)C3)c12` [Example 333, 3-{2-[7-(5-Methyl-7H-pyrrolo[2,3-d]pyrimidin-4-yl)-4,7-diaza-spiro[2.5]oct-4-yl]-2-oxo-ethyl}-benzonitrile], for which the EC50 in assay [1] (setting [9]), in assay [2] (setting [10]), in assay [3] (setting [11]) and in assay [4] (setting [12]) was above 500 nM throughout.

For the compound `O=C(c1ccccc1)N1[C@@H]2CC[C@@H]1CN(c1ncnc3[nH]ccc13)C2` [Example 240, Phenyl-[3-(7H-pyrrolo[2,3-d]pyrimidin-4-yl)-3,8-diaza-bicyclo[3.2.1]oct-8-yl]-methanone], the concentration giving a half-maximal response (EC50) in assay [1] (setting [9]) is above 500 nM; in assay [2] (setting [10]), 100 to 500 nM; in assay [3] (setting [11]), below 100 nM; in assay [4] (setting [12]), below 100 nM.

For `COc1cnc2[nH]ccc2c1N1CCN(C(=O)c2ccc(-c3ccccc3)s2)C2(CC2)C1` [Example 290, [7-(5-Methoxy-1H-pyrrolo[2,3-b]pyridin-4-yl)-4,7-diaza-spiro[2.5]oct-4-yl]-(5-phenyl-thiophen-2-yl)-methanone], the EC50 in assay [1] (setting [9]), in assay [2] (setting [10]), in assay [3] (setting [11]) and in assay [4] (setting [12]) was above 500 nM each time.

As to `COc1cnc2[nH]ccc2c1N1CCN(C(=O)Cc2cccc(C#N)c2)C2(CC2)C1` [Example 294, 3-{2-[7-(5-Methoxy-1H-pyrrolo[2,3-b]pyridin-4-yl)-4,7-diaza-spiro[2.5]oct-4-yl]-2-oxo-ethyl}-benzonitrile], the EC50 in assay [1] (setting [9]) is above 500 nM; in assay [2] (setting [10]), 100 to 500 nM; in assay [3] (setting [11]), 100 to 500 nM; in assay [4] (setting [12]) it was 100 to 500 nM.
